Results on one compound are retold here after patent US7678791B2, “Nitroheteroaryl-containing rifamycin derivatives” (Cumbre IP Ventures, L.P., priority 2006, dated 2010).

The assay has as its system Mycobacterium tuberculosis H37Rv (rif-resistant). Nature of the assay: microbe, parasite or virus in culture. The format is cell-based.

Structures are written as SMILES. Converted amounts (≈) assume the structure as drawn.

Turning to `CO[C@H]1/C=C/O[C@@]2(C)Oc3c(C)c(O)c4c(c3C2=O)C2=NC3(CCN(CCn5c([N+](=O)[O-])cnc5C)CC3)NC2=C(NC(=O)/C(C)=C\C=C\[C@H](C)[C@H](O)[C@@H](C)[C@@H](O)[C@@H](C)[C@H](OC(C)=O)[C@@H]1C)C4=O` [Example 1, 4-Deoxy-3,4-[2-spiro-[1-[2-(2-methyl-5-nitro-imidazol-1-yl)ethyl]-piperidin-4-yl]]-(1H)-imidazo-(2,5-dihydro)rifamycin S], the “antimicrobial activity in words, rifampin-resistant M. tuberculosis” value is on record as “retains activity”. In addition, the MIC (Mycobacterium tuberculosis, H37RV) stood at 5 µg/mL (≈ 5.3 µM).
